Measurements reported in patent US20080125493A1, “Use of agomelatine in obtaining medicaments intended for the treatment of periventricular leukomalacia” (LES LABORATOIRES SERVIER, priority 2006, published 2008).

System: lesions of the white matter of the brain produced by intracerebral injection of ibotenate
Assay: Neuroprotective effects on ibotenate-induced white matter lesions in 5-day-old baby mice
Assay type: in vivo
Method: Immediately after the administration of 10 μg of ibotenate, there are injected by the i.p. route, in a final volume of 5 μl, from 0.005 to 5 mg/kg of agomelatine, 10 mg/kg of fluoxetine used as standard antidepressant control, or the solvent alone. In a second experiment, the i.p. injection following the intracerebral injection of ibotenate is carried out 2 hours, 4 hours or 8 hours later.

SMILES	effect on the lesions of the white matter (10 mg/kg i.p., co-administration immediately after 10 μg ibotenate)	reduction of the lesions of the white matter (5 mg/kg i.p., co-administration immediately after 10 μg ibotenate intracerebral, 5-day-old mice)	effect on the lesions of the white matter (dose dependence) (0.005 to 5 mg/kg i.p., co-administration immediately after 10 μg ibotenate)	course of lesion size over time (co-treated concomitantly or after 8 hours, same lesions for first 24 hours, then over the next 4 days)	neuroprotection with delayed administration (i.p. administration 8 hours after the injection of ibotenate)	neuroprotection with delayed administration (i.p. administration between 0 and 4 hours after the injection of ibotenate)
CNCCC(Oc1ccc(C(F)(F)F)cc1)c1ccccc1 (stereo not drawn) [fluoxetine, reference compound]	No significant effect					
COc1ccc2cccc(CCNC(C)=O)c2c1 [agomelatine, N-[2-(7-methoxy-1-naphthyl)ethyl]acetamide]		59%	dose-dependent reduction of the lesions of the white matter	very major regression	significant neuroprotection is restored	decreases
